From patent US8987502B2, “Oleanolic acid amidate derivatives, preparation methods and uses thereof” (Hangzhou Bensheng Pharmaceutical Co., Ltd., priority 2011, dated 2015)

Experiments:
SK-OV-3 = test: MTT solid tumor cell proliferation inhibition, SK-OV-3; assay type: cell-based, human; conditions: Homo sapiens
Description: (§1) Human solid tumor cell lines: Hep-2 (laryngeal carcinoma), A549 (human lung cancer), CaES-17 (esophageal cancer cell), PC-3 (prostate cancer), CNE (nasopharyngeal carcinoma cell), and SK-OV-3 (ovarian cancer cell), all of which are purchased from China Center For Type Culture Collection; RKO (human colon adenocarcinoma cell), MGC 803 (human gastric cancer cell), MG63 (osteosarcoma) and U87 MG (malignant glioma cell), all of which are purchased from Fuxiang Bio-tech Co. Ltd., Shanghai, China; PANC-1 (pancreatic cancer), Hep G2 (human liver cancer cell), Becap37 (human breast cancer cell), and Hela (human cervical cancer cell), all of which are donated by Cancer Research Institute of Zhejiang University, China.
(§2) Obtaining 4000 well-growing human solid tumor cells and inoculating them into wells of a 96-well cell culture plate. The culture medium is DMEM High Glucose cell culture medium containing 10% fetal bovine serum. The plate is placed in a carbon dioxide cell incubator (5% CO2) at 37° C. for 24 hours for incubation. After being added with the amidated oleanolic acid derivatives of different concentrations and mixed uniformly, the plate is placed in a carbon dioxide cell incubator (5% CO2) at 37° C. for 72 hours for incubation. Then the relative number of the living cells is determined by the MTT method. In this experiment, the cell proliferation inhibition rate in control group (not treated with any compound) is set as 0%.

PC-3 = test: MTT solid tumor cell proliferation inhibition, PC-3; assay type: cell-based, human; conditions: Homo sapiens
Description: as §1, §2

CaES-17 = test: MTT solid tumor cell proliferation inhibition, CaES-17; assay type: cell-based, human; conditions: Homo sapiens, CaEs17
Description: as §1, §2

NB4 = test: MTT leukemia cell proliferation inhibition, NB4; assay type: cell-based; conditions: Homo sapiens, NB-4
Text: (§3) Leukemia cell lines: leukemia cell lines: K562/adr (drug-resistant, chronic myeloid leukemia, CML), NB4 (acute promyelocytic leukemia, AML), Kasumi-1 (acute myeloid leukemia M2 type, AML-M2), Jurkat (acute lymphoblastic leukemia, ALL), all of which are donated by Cancer Research Institute of Zhejiang University, China; and H9 (acute lymphoblastic leukemia, ALL), which is purchased from China Center for Type Culture Collection (CCTCC).
(§4) Reagents: The standard sample of oleanolic acid (OA) is purchased from Hua Kang Pharmaceutical Raw Material Factory, Shifang City, Sichuan, China; and the amidated oleanolic acid derivatives are prepared according to the present invention.
(§5) Obtaining 6000 well-growing leukemia cells and inoculating them into wells of a 96-well cell culture plate. The culture medium is the 1640 cell culture medium containing 10% fetal bovine serum. After adding the amidated oleanolic acid derivatives of different concentrations and mixing uniformly, placing the plate in a carbon dioxide cell incubator (5% CO2) at 37° C. and incubated for 72 hours. Then the relative number of viable cells is determined by the MTT method. In this experiment, the cell proliferation inhibition rate in control group (not treated with any compound) is set as 0%.

MGC803 = test: MTT solid tumor cell proliferation inhibition, MGC803; assay type: cell-based, human; conditions: Homo sapiens, MGC-803
Description: as §1, §2

Jurkat = test: MTT leukemia cell proliferation inhibition, Jurkat; assay type: cell-based; conditions: Homo sapiens, 72 h
Text: as §3, §4, §5

K562/adr = test: MTT leukemia cell proliferation inhibition, K562/adr; assay type: cell-based; conditions: Homo sapiens, 72 h
How it was run: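 Derivatives at a range of concentrations incubated 72 h with 6000 cells/well (1640, 10% FBS, 37 °C, 5% CO2); viability by MTT.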

PANC-1 = test: MTT solid tumor cell proliferation inhibition, PANC-1; assay type: cell-based, human; conditions: Homo sapiens
Description: as §1, §2

H9 = test: MTT leukemia cell proliferation inhibition, H9; assay type: cell-based, human; conditions: Homo sapiens
Text: as §3, §4, §5

Hep G2 = test: MTT solid tumor cell proliferation inhibition, Hep G2; assay type: cell-based; conditions: Homo sapiens, HepG2
Description: as §1, §2

Becap37 = test: MTT solid tumor cell proliferation inhibition, Becap37; assay type: cell-based; conditions: Homo sapiens
Description: as §1, §2

U87 MG = test: MTT solid tumor cell proliferation inhibition, U87 MG; assay type: cell-based, human; conditions: Homo sapiens, U-87 MG, U87 MG, 72 h
Description: as §1, §2

A549 = test: MTT solid tumor cell proliferation inhibition, A549; assay type: cell-based, human; conditions: Homo sapiens
How it was run: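 MTT read-out of relative viable cells after 72 h compound exposure at 37 °C, 5% CO2. 4000 cells/well, DMEM high glucose + 10% FBS, 24 h pre-incubation before dosing. Inhibition referenced to untreated control set at 0%.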

Hep-2 = test: MTT solid tumor cell proliferation inhibition, Hep-2; assay type: cell-based, human; conditions: Homo sapiens
Description: as §1, §2

RPMI8226 = test: MTT multiple myeloma cell proliferation inhibition, RPMI8226; assay type: cell-based; conditions: Homo sapiens, RPMI-8226
Description: Multiple myeloma cell lines: RPMI8226 (multiple myeloma), purchased from Fuxiang Bio-tech Co. Ltd., Shanghai, China.
as §5

Kasumi-1 = test: MTT leukemia cell proliferation inhibition, Kasumi-1; assay type: cell-based; conditions: Homo sapiens
Text: as §3, §4, §5

RKO = test: MTT solid tumor cell proliferation inhibition, RKO; assay type: cell-based; conditions: Homo sapiens, 72 h
Description: as §1, §2

Hela = test: MTT solid tumor cell proliferation inhibition, Hela; assay type: cell-based, human; conditions: Homo sapiens, Hela, 72 h
Description: as §1, §2

MG 63 = test: MTT solid tumor cell proliferation inhibition, MG 63; assay type: cell-based, human
Description: as §1, §2

CNE = test: MTT solid tumor cell proliferation inhibition, CNE; assay type: cell-based, human; conditions: Homo sapiens, CNE, 72 h
Description: as §1, §2

[1] = 16 μg/mL compound, read-out: IR (inhibition rate)

IC50 (SK-OV-3; SK-OV-3, 72 h, MTT): > 16 µg/mL
IC50 (PC-3; PC-3, 72 h, MTT): > 16 µg/mL
IC50 (CaES-17; CaES-17, 72 h, MTT): > 16 µg/mL
IC50 (NB4; NB4, 72 h, MTT): > 16 µg/mL
IC50 (MGC803; MGC803, 72 h, MTT): > 16 µg/mL
IC50 (Jurkat; MTT): > 16 µg/mL
IC50 (K562/adr; MTT): > 16 µg/mL
IC50 (PANC-1; PANC-1, 72 h, MTT): > 16 µg/mL
IC50 (H9; H9, 72 h, MTT): > 16 µg/mL
IC50 (Hep G2; Hep G2, 72 h, MTT): > 16 µg/mL
IC50 (Becap37; Becap37, 72 h, MTT): > 16 µg/mL
IC50 (U87 MG; MTT): > 16 µg/mL
IC50 (A549; A549, 72 h, MTT): > 16 µg/mL
IC50 (Hep-2; Hep-2, 72 h, MTT): > 16 µg/mL
IC50 (RPMI8226; RPMI8226, 72 h, MTT): > 16 µg/mL
IC50 (Kasumi-1; Kasumi-1, 72 h, MTT): > 16 µg/mL
IC50 (RKO; MTT): > 16 µg/mL
IC50 (Hela; MTT): > 16 µg/mL
IC50 (MG 63; Homo sapiens, MG 63, 72 h, MTT): > 16 µg/mL
IC50 (CNE; MTT): > 16 µg/mL
Structure (SMILES): CC1(C)CC[C@]2(C(=O)O)CC[C@]3(C)C(=CC[C@@H]4[C@@]5(C)CC[C@H](O)C(C)(C)[C@@H]5CC[C@]43C)[C@@H]2C1 [OA, Oleanolic acid]
inhibition at 16 µg/mL (SK-OV-3; SK-OV-3, 16 μg/mL compound, 72 h, read-out: IR (inhibition rate)): 8.3%
inhibition at 16 µg/mL (PC-3; PC-3, 16 μg/mL compound, 72 h, read-out: IR (inhibition rate)): 29.1%
inhibition at 16 µg/mL (CaES-17; CaES-17, 16 μg/mL compound, 72 h, read-out: IR (inhibition rate)): 27.4%
inhibition at 16 µg/mL (NB4; NB4, 16 μg/mL compound, 72 h, read-out: IR (inhibition rate)): 17.2%
inhibition at 16 µg/mL (MGC803; MGC803, 16 μg/mL compound, 72 h, read-out: IR (inhibition rate)): 19.7%
inhibition at 16 µg/mL (Jurkat; [1]): 9.4%
inhibition at 16 µg/mL (K562/adr; [1]): 26.5%
inhibition at 16 µg/mL (PANC-1; PANC-1, 16 μg/mL compound, 72 h, read-out: IR (inhibition rate)): 8.5%
inhibition at 16 µg/mL (H9; H9, 16 μg/mL compound, 72 h, read-out: IR (inhibition rate)): 22.8%
inhibition at 16 µg/mL (Hep G2; Hep G2, 16 μg/mL compound, 72 h, read-out: IR (inhibition rate)): -18.5%
inhibition at 16 µg/mL (Becap37; Becap37, 16 μg/mL compound, 72 h, read-out: IR (inhibition rate)): 23.4%
inhibition at 16 µg/mL (U87 MG; [1]): 21.8%
inhibition at 16 µg/mL (A549; A549, 16 μg/mL compound, 72 h, read-out: IR (inhibition rate)): 5%
inhibition at 16 µg/mL (Hep-2; Hep-2, 16 μg/mL compound, 72 h, read-out: IR (inhibition rate)): 9.8%
inhibition at 16 µg/mL (RPMI8226; RPMI8226, 16 μg/mL compound, 72 h, read-out: IR (inhibition rate)): 2.2%
inhibition at 16 µg/mL (Kasumi-1; Kasumi-1, 16 μg/mL compound, 72 h, read-out: IR (inhibition rate)): 17.2%
inhibition at 16 µg/mL (RKO; [1]): 14.3%
inhibition at 16 µg/mL (Hela; [1]): 22.9%
IR (inhibition rate) (MG 63; MG 63, 16 μg/mL compound, 72 h): 29.2%
inhibition at 16 µg/mL (CNE; [1]): 33.9%
